Experimental findings from patent US10227347B2, “Purinyl-N-hydroxyl pyrimidine formamide derivative, preparation methods and uses thereof” (Guizhou Bailing Group Pharmaceutical CO., LTD., priority 2015, dated 2019) are described below.

Data set [1] has as its target T1, mTOR (Homo sapiens, UniProt P42345).
T1 construct: purchased Millipore 14-770
The data set is described as follows: mTOR activity inhibition (ULight-4E-BP1 peptide). It is filed as biochemical. Conditions: Table 1, graded. As for the experimental part:
mTOR protein is purchased from Millipore Company (Catalog No.: 14-770). The reaction buffer system comprises 50 mM HEPES, 10 mM MgCl2, 1 mM EGTA, 3 mM […], 0.01% Tween-20 (purchased from Chengdu Kelong Chemical Regent Factory) and 2 mM DTT. The pH value of the reaction buffer is 7.5. Preparing 10 μL reaction system in corresponding wells of the 384 well plate, which contains the compositions as: the compound with designed concentration (or blank control), mTOR protein (with the concentration of 2.5 nM), ULight-4E-BP1 (containing the 37th and the 46th threonine residues, Thr37/46) peptide (purchased from PE Company, Catalog No.: TRF0128-M) and ATP substrates (ULight-4E-BP1 peptide, with the concentration of 50 nM and ATP, with the concentration of […]). Mixing it evenly for incubation under ambient temperature for 1 h; adding 10 μL testing liquid containing EDTA (ethylenediaminetetraacetic acid) and Eu-anti-phosphorylation-4E-BP1 (Thr37/46) antibody (purchased from PE Company, Catalog No.: TRF0216-M) into the reaction wells (after the testing liquid is added, the concentration of EDTA is 8 mM and the concentration of Eu-phosphorylation-4E-BP1 antibody is 2 nM); mixing it evenly and incubating it for 1 h under ambient temperature, then measuring the fluorescence intensity with a microplate reader and analyzing the result data with the software GraphPad Prism.
Calculating the value of IC50 as per the formula: Y=background data+(top data−background data)/(1+10^((Log IC50−X)*rate of curve))
Where, Y refers to the inhibition ratio (%) and X refers to the compound concentration.

For data set [2], the system named is human breast cancer MDA-MB-231 subcutaneous tumor. Put plainly: Subcutaneous tumor model, human breast cancer MDA-MB-231. Particulars: once per 2 days. As for the experimental part: (§1) Cell MM1S is cultured in RPMI1640 medium (HyClone) which contains 10% fetal calf serum (Hohhot Caoyuan Lvye Bioengineering Material Co., Ltd.) and 100 U/mL penicillin and streptomycin (Beyotime).
(§2) 3) Inoculation, grouping and treatment: collecting cells in logarithmic phase under aseptic conditions and counting; diluting the single cell suspension with the medium containing neither fetal calf serum nor antibiotics to 1×10^7-8 cell/mL for standby. Mixing the cell suspension; injecting 100 μL of cell suspension (5×10^6-2×10^7 cells) subcutaneously with a 1 mL injector on the right side of the back of animals. Weeding out the animals with oversized and undersized tumor when the tumor grows to an average volume of about 120 mm^3 and grouping the qualified animals for treatment and drug administration. Refer to Table 7 for each grouping model and drug administration frequency. Measuring the weight of each model per 2 days and measuring the length and width of the tumor with a vernier caliper; killing the tested animals through cervical dislocation and peeling off their tumors for weight measuring and photographing. Then calculating the tumor inhibition ratio (%) and evaluating the inhibition intensity to tumor with such tumor inhibition ratio.

The subject of data set [3] is human multiple myeloma MM1S subcutaneous tumor. The data set is described as follows: Subcutaneous tumor model, human multiple myeloma MM1S. Conditions: once per 2 days. As for the experimental part: as §1, §2
In data set [4] the test system is human breast cancer MCF-7 subcutaneous tumor. The data set is described as follows: Subcutaneous tumor model, human breast cancer MCF-7. Particulars: once per 2 days.
Data set [5] has as its system human B-cell lymphoma Raji subcutaneous tumor. Put plainly: Subcutaneous tumor model, human B-cell lymphoma Raji. Particulars: once per 2 days, intraperitoneal.
Data set [6] deals with human colon cancer hct116 subcutaneous tumor. Put plainly: Subcutaneous tumor model, human colon cancer hct116. Conditions: once per 2 days, intravenous.

T1 sequence (P42345 1362-2549 limits assumed): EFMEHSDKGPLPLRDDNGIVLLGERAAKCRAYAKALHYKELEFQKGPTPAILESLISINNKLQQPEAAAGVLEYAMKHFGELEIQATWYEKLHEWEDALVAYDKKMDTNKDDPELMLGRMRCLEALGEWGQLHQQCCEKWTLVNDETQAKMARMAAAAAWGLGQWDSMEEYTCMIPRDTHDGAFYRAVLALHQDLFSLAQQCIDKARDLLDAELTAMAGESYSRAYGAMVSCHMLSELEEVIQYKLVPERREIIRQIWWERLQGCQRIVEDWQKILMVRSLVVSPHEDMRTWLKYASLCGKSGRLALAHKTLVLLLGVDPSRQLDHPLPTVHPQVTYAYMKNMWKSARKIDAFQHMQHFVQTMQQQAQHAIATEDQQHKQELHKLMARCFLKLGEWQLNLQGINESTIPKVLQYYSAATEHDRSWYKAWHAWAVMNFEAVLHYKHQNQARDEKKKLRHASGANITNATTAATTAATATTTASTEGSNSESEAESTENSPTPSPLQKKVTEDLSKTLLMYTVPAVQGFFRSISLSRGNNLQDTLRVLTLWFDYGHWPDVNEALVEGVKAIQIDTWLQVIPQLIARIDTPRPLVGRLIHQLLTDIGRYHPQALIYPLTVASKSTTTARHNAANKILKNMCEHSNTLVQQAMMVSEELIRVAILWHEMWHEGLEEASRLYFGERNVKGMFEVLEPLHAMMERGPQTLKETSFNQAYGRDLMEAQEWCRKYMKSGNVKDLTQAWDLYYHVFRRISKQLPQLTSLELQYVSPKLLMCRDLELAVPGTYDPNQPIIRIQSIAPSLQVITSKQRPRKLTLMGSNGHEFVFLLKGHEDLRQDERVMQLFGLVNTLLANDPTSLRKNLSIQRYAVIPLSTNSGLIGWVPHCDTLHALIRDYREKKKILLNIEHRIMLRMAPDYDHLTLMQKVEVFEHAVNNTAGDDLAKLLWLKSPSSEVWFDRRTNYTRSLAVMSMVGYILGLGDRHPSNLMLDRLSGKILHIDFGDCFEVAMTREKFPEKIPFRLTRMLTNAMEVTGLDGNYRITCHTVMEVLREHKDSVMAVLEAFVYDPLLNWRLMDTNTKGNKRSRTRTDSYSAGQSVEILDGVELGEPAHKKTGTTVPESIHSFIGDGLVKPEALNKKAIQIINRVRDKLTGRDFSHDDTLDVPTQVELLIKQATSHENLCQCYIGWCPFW

For orientation: IC50 means the concentration needed to halve the response being measured. Consider `CN(Cc1nc2c(N3CCOCC3)nc(-c3cnc(N)nc3)nc2n1C)c1ncc(C(=O)NO)cn1` [CLJ-11, 2-(((2-(2-aminopyrimidine-5-yl)-9-methyl-6-morpholine-9H-purine-8-yl))methyl(methyl)amino)-N-hydroxyl pyrimidine-5-formamide], for which the IC50 in data set [1] was in the range of 100 to 1000 nM.
Turning to `Cc1[nH]c2ccccc2c1CCNCc1ccc(/C=C/C(=O)NO)cc1` [LBH589, panobinostat, reference compound], the Death was 0/6 in data set [2] (10 mg/kg, intraperitoneal); 0/7 in data set [3] (10 mg/kg, intraperitoneal); 0/6 in data set [4] (10 mg/kg, intraperitoneal); 0/6 in data set [5] (10 mg/kg). Besides, the “Inhibitory rate (%)” value in data set [2] (10 mg/kg, intraperitoneal) is listed as 77.95%; in data set [3] (10 mg/kg, intraperitoneal) it was 47.33%; in data set [4] (10 mg/kg, intraperitoneal) it was 75.69%; in data set [5] (10 mg/kg), 54.93%.
Take `CN(Cc1nc2c(N3CCOCC3)nc(-c3ccc(N)cc3)nc2n1C)c1ncc(C(=O)NO)cn1` [CLJ-44]: the Death is on record as 0/6 in data set [2] (2.5 mg/kg, intravenous); 0/6 in data set [2] (5 mg/kg, intravenous); 0/6 in data set [2] (10 mg/kg, intravenous); 0/7 in data set [3] (2.5 mg/kg, intravenous); 0/7 in data set [3] (5 mg/kg, intravenous); 0/7 in data set [3] (10 mg/kg, intravenous). Besides, the Death in data set [6] (2.5 mg/kg) was 0/6; in data set [6] (5 mg/kg) it was 0/6; in data set [6] (10 mg/kg), 0/6; in data set [4] (2.5 mg/kg, intravenous) it was 0/6; in data set [4] (5 mg/kg, intravenous), 0/6; in data set [4] (10 mg/kg, intravenous), 0/6. Further, the Death in data set [5] (5 mg/kg), in data set [5] (10 mg/kg) and in data set [5] (20 mg/kg) was 0/6 throughout. Moreover, the “Inhibitory rate (%)” value in data set [2] (2.5 mg/kg, intravenous) was 72.1%; in data set [2] (5 mg/kg, intravenous), 83.9%; in data set [2] (10 mg/kg, intravenous), 86.9%; in data set [3] (2.5 mg/kg, intravenous), 45.09%; in data set [3] (5 mg/kg, intravenous), 69.65%; in data set [3] (10 mg/kg, intravenous), 71.94%. In addition, the “Inhibitory rate (%)” value amounted to 49.4% in data set [6] (2.5 mg/kg); 53.3% in data set [6] (5 mg/kg); 68.2% in data set [6] (10 mg/kg); 69.58% in data set [4] (2.5 mg/kg, intravenous); 77.58% in data set [4] (5 mg/kg, intravenous); 82.24% in data set [4] (10 mg/kg, intravenous). Further, the “Inhibitory rate (%)” value was 76.96% in data set [5] (5 mg/kg), 97.34% in data set [5] (10 mg/kg) and 99.29% in data set [5] (20 mg/kg).
`COc1ccc(-c2nc(N3CCOCC3)c3nc(CN(C)c4ncc(C(=O)NO)cn4)n(C)c3n2)cn1` [CLJ-1, 2-(((2-(6-methoxypyridine-3-yl)-9-methyl-6-morpholine-9H-purine-8-yl))methyl(methyl)amino)-N-hydroxyl pyrimidine-5-formamide] returned an IC50 in data set [1] of 1000 to 10000 nM.
